Laboratory results taken from ChEMBL document CHEMBL4033706, “Synthesis of novel acyl selenoureido benzensulfonamides as carbonic anhydrase I, II, VII and IX inhibitors” (Bioorg Med Chem, 2017).

target: Carbonic anhydrase 9 (Homo sapiens, UniProt Q16790)
Description: Inhibition of recombinant human carbonic anhydrase-9 assessed as reduction in CO2 hydration preincubated for 15 mins followed by CO2 addition measured for 10 to 100 secs by stopped-flow assay

Structure (SMILES) | Ki
Cc1cccc(C(=O)NC(=[Se])Nc2cccc(S(N)(=O)=O)c2)c1 | 43.9 nM
CC(=O)Oc1ccccc1C(=O)NC(=[Se])Nc1ccc(S(N)(=O)=O)cc1 | 13.6 nM
NS(=O)(=O)c1ccc(CCNC(=[Se])NC(=O)c2ccc3c(c2)OCO3)cc1 | 105 nM
NS(=O)(=O)c1ccccc1NC(=[Se])NC(=O)c1ccccc1 | 284 nM
NS(=O)(=O)c1cccc(NC(=[Se])NC(=O)c2ccccc2)c1 | 374 nM
Cc1cccc(C(=O)NC(=[Se])NCCc2ccc(S(N)(=O)=O)cc2)c1 | 146 nM
NS(=O)(=O)c1ccc(NC(=[Se])NC(=O)c2ccccc2)cc1 | 4.6 nM
CC(=O)Oc1ccccc1C(=O)NC(=[Se])Nc1cc(S(N)(=O)=O)ccc1O | 80.8 nM
NS(=O)(=O)c1cccc(NC(=[Se])NC(=O)c2ccc(C(F)(F)F)cc2C(F)(F)F)c1 | 4700 nM
NS(=O)(=O)c1ccc(CCNC(=[Se])NC(=O)c2ccc(-c3ccccc3)cc2)cc1 | 4870 nM
Cc1cc(C(=O)NC(=[Se])Nc2cc(S(N)(=O)=O)ccc2O)ccc1Br | 5.8 nM
NS(=O)(=O)c1ccc(NC(=[Se])NC(=O)c2cc(Br)cc(OC(F)(F)F)c2)cc1 | 3.5 nM
NS(=O)(=O)c1ccc(CCNC(=[Se])NC(=O)c2ccccc2)cc1 | 7.2 nM
NS(=O)(=O)c1ccc(O)c(NC(=[Se])NC(=O)c2ccc(-c3ccccc3)cc2)c1 | 69.1 nM
CCCCCCCc1ccc(C(=O)NC(=[Se])Nc2ccc(S(N)(=O)=O)cc2)cc1 | 25.1 nM
NS(=O)(=O)c1ccc(NC(=[Se])NC(=O)c2ccc3c(c2)OCO3)cc1 | 129 nM
